These results are taken from BindingDB's records for PubMed 39914143 (COMSATS University Islamabad).

Structures are written as SMILES.

The assay deals with T1, Amine oxidase [flavin-containing] B (Homo sapiens, UniProt P27338).
T1 sequence (P27338 whole entry): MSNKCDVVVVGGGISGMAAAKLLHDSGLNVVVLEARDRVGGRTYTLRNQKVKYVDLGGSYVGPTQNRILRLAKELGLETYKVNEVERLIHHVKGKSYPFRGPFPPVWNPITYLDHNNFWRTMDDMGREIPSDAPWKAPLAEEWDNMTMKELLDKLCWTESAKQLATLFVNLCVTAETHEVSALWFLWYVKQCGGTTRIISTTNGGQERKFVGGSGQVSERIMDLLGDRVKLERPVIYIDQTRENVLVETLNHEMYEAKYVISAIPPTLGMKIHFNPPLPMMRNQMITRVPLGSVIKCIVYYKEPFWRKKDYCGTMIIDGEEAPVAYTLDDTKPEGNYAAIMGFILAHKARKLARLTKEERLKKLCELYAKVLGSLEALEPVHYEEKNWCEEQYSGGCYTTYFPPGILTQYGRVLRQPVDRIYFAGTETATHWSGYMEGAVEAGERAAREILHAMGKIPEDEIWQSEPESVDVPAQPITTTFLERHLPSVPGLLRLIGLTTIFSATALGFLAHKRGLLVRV
The assay is described as follows: Inhibition of MAO-B (unknown origin).

One may read the IC50 as the midpoint of a concentration-inhibition curve.

For the compound `CN(C)CCN1CCN(Cc2ccc(C(=O)Nc3nc4ccccc4s3)cc2)CC1`, the IC50 worked out at 40 nM.
